Toxic doses and inconclusive results are not listed. Rule for the calls: active = survival T/C of 150% or more; inactive = T/C below 125% in these data.
System: P388 leukemia ip, CD2F1 mice, survival T/C
Test: NCI In Vivo Anticancer Drug Screen. Data for tumor model P388 Leukemia (intraperitoneal) in CD2F1 (CDF1) mice
Conditions: endpoint: median survival time, higher = longer survival
How it was run: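 Mice carrying the transplanted tumor received test compound or vehicle. Survival was recorded in each group, and the value is the treated-group measurement divided by that of the vehicle-treated control group.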

[1] = dose: 50.0 mg/kg/injection, schedule: Q01DX005 (ip), vehicle: Klucel (hydroxypropylcellulose) (HPC)
[2] = dose: 100.0 mg/kg/injection, schedule: Q01DX005 (ip), vehicle: Klucel (hydroxypropylcellulose) (HPC)
[3] = dose: 200.0 mg/kg/injection, schedule: Q01DX005 (ip), vehicle: Klucel (hydroxypropylcellulose) (HPC)
[4] = dose: 60.0 mg/kg/injection, schedule: Q01DX005 (ip), vehicle: saline with Tween-80
[5] = dose: 120.0 mg/kg/injection, schedule: Q01DX005 (ip), vehicle: saline with Tween-80
[6] = dose: 240.0 mg/kg/injection, schedule: Q01DX005 (ip), vehicle: saline with Tween-80

Measured: T/C

O=CN1CCc2cc3c(cc2C1Cc1cc2c(cc1Br)OCO2)OCO3 (stereo not drawn)
inactive: dose: 25.0 mg/kg/injection, schedule: Q01DX001 (ip), vehicle: saline + alcohol 99 % of control | dose: 50.0 mg/kg/injection, schedule: Q01DX001 (ip), vehicle: saline + alcohol 103 % of control | dose: 100.0 mg/kg/injection, schedule: Q01DX001 (ip), vehicle: saline + alcohol 100 % of control

Cc1nc(N(C)C)[nH]c(=O)c1N=Nc1ccc(Cl)cc1
inactive: [1] 105 % of control | [2] 114 % of control | [3] 105 % of control

CCCC(=O)C(CC)C(O)(C(F)(F)F)C(F)(F)F (stereo not drawn)
inactive: dose: 50.0 mg/kg/injection, schedule: Q01DX009 (ip), vehicle: saline 104 % of control | dose: 100.0 mg/kg/injection, schedule: Q01DX009 (ip), vehicle: saline 104 % of control | dose: 200.0 mg/kg/injection, schedule: Q01DX009 (ip), vehicle: saline 109 % of control

CC(C)=C1N(C(C)C)C(=C(C)C)N(C(C)C)C(=C(C)C)N1C(C)C
inactive: [1] 96 % of control | [2] 100 % of control | [3] 89 % of control

CCOC(=O)/C(C#N)=C/Nc1[nH]c(=O)c(C#N)c(-c2ccc(Cl)cc2)c1SC
inactive: [4] 110 % of control | [5] 100 % of control | [6] 108 % of control

Cc1cccnc1NC(=S)Nc1ccccc1Cl
inactive: dose: 12.5 mg/kg/injection, schedule: Q01DX009 (ip), vehicle: gum acacia 104 % of control | dose: 25.0 mg/kg/injection, schedule: Q01DX009 (ip), vehicle: gum acacia 96 % of control | dose: 50.0 mg/kg/injection, schedule: Q01DX009 (ip), vehicle: gum acacia 104 % of control | dose: 100.0 mg/kg/injection, schedule: Q01DX009 (ip), vehicle: gum acacia 95 % of control

O=C(O)C1Cc2c([nH]c3ccccc23)C(CCCCO)N1 (stereo not drawn)
inactive: dose: 6.25 mg/kg/injection, schedule: Q01DX009 (ip), vehicle: Klucel (hydroxypropylcellulose) (HPC) 101 % of control | dose: 12.5 mg/kg/injection, schedule: Q01DX009 (ip), vehicle: Klucel (hydroxypropylcellulose) (HPC) 99 % of control

CCN(CC)CCCC(C)Nc1cc(C)nc(Nc2nc3cc(Cl)c(Cl)cc3[nH]2)n1 (stereo not drawn)
inactive: dose: 2.5 mg/kg/injection, schedule: Q01DX009 (ip), vehicle: saline with Tween-80 100 % of control | dose: 5.0 mg/kg/injection, schedule: Q01DX009 (ip), vehicle: saline with Tween-80 90 % of control | dose: 10.0 mg/kg/injection, schedule: Q01DX009 (ip), vehicle: saline with Tween-80 100 % of control

Cc1ncc(S(=O)(=O)Cc2ccc3c(c2)OCO3)c(N)n1
inactive: dose: 100.0 mg/kg/injection, schedule: Q01DX001 (ip), vehicle: saline 96 % of control | dose: 200.0 mg/kg/injection, schedule: Q01DX001 (ip), vehicle: saline 95 % of control | dose: 400.0 mg/kg/injection, schedule: Q01DX001 (ip), vehicle: saline 95 % of control

c1ccc(C2CN3CCSC3=N2)cc1 (stereo not drawn)
inactive: dose: 3.13 mg/kg/injection, schedule: Q01DX009 (ip), vehicle: saline with Tween-80 98 % of control | dose: 3.75 mg/kg/injection, schedule: Q01DX005 (ip), vehicle: saline 101 % of control | dose: 6.25 mg/kg/injection, schedule: Q01DX009 (ip), vehicle: saline with Tween-80 100 % of control | dose: 7.5 mg/kg/injection, schedule: Q01DX005 (ip), vehicle: saline 100 % of control | dose: 12.5 mg/kg/injection, schedule: Q01DX009 (ip), vehicle: saline with Tween-80 98 % of control | dose: 15.0 mg/kg/injection, schedule: Q01DX005 (ip), vehicle: saline 99 % of control | dose: 25.0 mg/kg/injection, schedule: Q01DX009 (ip), vehicle: saline with Tween-80 103 % of control

Cc1oc2ccccc2c(=O)c1Cn1cnc2ccc([N+](=O)[O-])cc21
inactive: [4] 102 % of control | [5] 93 % of control | [6] 91 % of control

CCOC(=O)C(CC)/C(C)=N\NC(N)=S (stereo not drawn)
inactive: dose: 60.0 mg/kg/injection, schedule: Q01DX005 (ip), vehicle: Klucel (hydroxypropylcellulose) (HPC) 100 % of control | dose: 120.0 mg/kg/injection, schedule: Q01DX005 (ip), vehicle: Klucel (hydroxypropylcellulose) (HPC) 101 % of control | dose: 240.0 mg/kg/injection, schedule: Q01DX005 (ip), vehicle: Klucel (hydroxypropylcellulose) (HPC) 99 % of control

O=CCC1CC2CCCCN2O1 (stereo not drawn)
inactive: dose: 25.0 mg/kg/injection, schedule: Q04DX003 (ip), vehicle: saline with Tween-80 102 % of control | dose: 50.0 mg/kg/injection, schedule: Q04DX003 (ip), vehicle: saline with Tween-80 101 % of control | dose: 100.0 mg/kg/injection, schedule: Q04DX003 (ip), vehicle: saline with Tween-80 108 % of control

Source: PubChem BioAssay AID330 (DTP/NCI, 2004)
